Experimental data taken from patent publication US7855290B2, “Pyridine derivatives and pyrimidine derivatives (3)” (Eisai R&D Management Co., Ltd., priority 2005, dated 2010).

Tests used:
[1] = molecular target: T1, His6-HGFR (HGFR cytoplasmic domain) (Homo sapiens, UniProt P08581); test: Inhibitory activity against HGFR tyrosine kinase activity (HTRF); format: biochemical; conditions: biotin-poly(GT), ATP, 30° C. 10 min
T1 construct: made in house; host or cells: Sf9 insect cells (Spodoptera frugiperda), baculovirus, pFastBac-HT vector
Description: The cytoplasmic domain of HGFR (Genbank Accession No. J02958) is a 1.3 kb DNA fragment beginning with Lys974 and including a stop codon, and described by Park et al. (Proc. Natl. Acad. Sci. U.S.A. 84(18), 6379-6383, 1987). The DNA fragment was isolated from the human placental cDNA library (purchased from Clontech) by PCR (TaKaRa Ex Taq™ Kit, purchased from TaKaRa) using two kinds of primers (SEQ ID NO: 1,5′-[…]-3′ and SEQ ID NO: 2,5′-[…]-3′, purchased from Invitrogen). The DNA fragment was cloned into a baculovirus transplace vector (pFastBac™-HT (purchased from GIBCO BRL)) to produce a recombinant construct. […] EGFR was purchased from Sigma (Production No. E-2645).
To the suspension of Sf9 cells (3×10^8 cells) in SF-900II medium (purchased from Invitrogen) containing 2% FBS was added a solution of HGFR transfected baculovirus above (4 ml), followed by a shaking culture at 27° C. for 48 hrs. The cells infected with the HGFR transfected baculovirus were centrifuged at 1,000 rpm, 4° C. for 5 min to remove the supernatant. The precipitated infected cells were suspended in 80 ml of ice-cold PBS, and centrifuged at 1,000 rpm, 4° C. for 5 min to remove the supernatant. The precipitated infected cells were suspended in 40 ml of ice-cold Lysis Buffer (50 mM Tris-HCl (pH 8.5), 5 mM 2-mercaptoethanol, 100 mM KCl, 1 mM PMSF and 1% (v/v) NP-40). The suspension was centrifuged at 12,000 rpm, 4° C. for 30 min to provide a supernatant.
The supernatant was loaded onto an Ni-NTA agarose column (3 ml, purchased from Qiagen) equilibrated with 30 ml of Buffer A (20 mM Tris-HCl (pH 8.5), 5 mM 2-mercaptoethanol, 500 mM KCl, 20 mM imidazole and 10% (v/v) glycerol). The column was washed with 30 ml of Buffer A, 6 ml of Buffer B (20 mM Tris-HCl (pH 8.5), 5 mM 2-mercaptoethanol, 1 M KCl, and 10% (v/v) glycerol) and 6 ml of Buffer A in this order. Then, the column was eluted with 6 ml of Buffer C (20 mM Tris-HCl (pH 8.5), 5 mM 2-mercaptoethanol, 100 mM KCl, 100 mM imidazole, and 10% (v/v) glycerol) to provide a fraction. The fraction was entrapped in a dialysis membrane (purchased from Spectrum Laboratories), dialyzed at 4° C. overnight with 1 L of dialysis buffer (20 mM Tris-HCl (pH 7.5), 10% (v/v) glycerol, 1 mM dithiothreitol, 0.1 mM Na3VO4 and 0.1 mM EGTA), and stored at −80° C. until used. […] The VEGFR2 cytoplasmic domain, the FGFR1 cytoplasmic domain, and the PDGFRβ cytoplasmic domain were fused with six histidine at the N terminus by the similar method to produce respective recombinant proteins (His6-VEGFR2, His6-FGFR1, and His6-PDGFRβ).
To each well of a 96-well round plate (purchased from NUNC, Production No. 163320) were added 10 μl of a solution for kinase reaction (200 mM Hepes (pH 7.4), 80 mM MgCl2, 16 mM MnCl2 and 2 mM Na3VO4), 250 ng of biotinylated poly(Glu4: Tyr1) (biotin-poly(GT), purchased from Japan Schering) (6 μl, 15-fold diluted with distilled water), 30 ng of His6-HGFR (10 μl, 60-fold diluted with 0.4% BSA) and a test substance dissolved in dimethylsulfoxide (4 μl, 100-fold diluted with 0.1% BSA) to mess up to 30 μl. To the well was added 10 μl of 4 μM ATP (purchased from Sigma) diluted with distilled water to incubate at 30° C. for 10 min, followed by adding 10 μl of 500 mM EDTA (pH 8.0) (purchased from Wako Pure Chemicals) to provide a kinase reaction solution.
The tyrosine-phosphorylated biotin-poly(GT) was detected using the Homogenous Time-Resolved Fluorescence (HTRF) method (Analytical Biochemistry, 269, 94-104, 1999).

HGFR = molecular target: T2, HGFR (Homo sapiens, UniProt P08581); test: Inhibitory activity against the HGFR autophosphorylation using ELISA (MKN-45 cells); format: cell-based; conditions: 1 hr with test substance
T2 construct: endogenous in cells; host or cells: MKN-45 human gastric cancer cells
Method: Human gastric cancer cells (MKN-45) were suspended in a 1% FBS-containing RPMI1640 medium (purchased from Sigma). The cell suspension (1×10^5 cells/ml) was put in a 96-well plate for cell culture (purchased from NUNC, Production No. 167008) at 0.1 ml/well, and then cultured in a 5% CO2 incubator (37° C.) overnight. After the culture, from each well was removed the supernatant, followed by adding 0.05 ml of a 1% FBS-containing RPMI1640 medium. Then, the well was supplied with 0.05 ml of the test substance dissolved in dimethyl sulfoxide (diluted with a 1% FBS-containing RPMI1640 medium), followed by culturing in a 5% CO2 incubator (37° C.) for 1 hr. From each well was removed the supernatant, and each well was washed with 150 μl of PBS, followed by adding 100 μl of a lysis buffer (50 mM Hepes (pH 7.4), 150 mM NaCl, 10% (v/v) glycerol, 1% Triton X-100, 1.5 mM MgCl2, 1 mM EDTA (pH 8.0), 100 mM NaF, 1 mM PMSF, 10 μg/ml Aprotinin, 50 μg/ml Leupeptin, 1 μg/ml Pepstatin A and 1 mM Na3VO4). The plate was shaken at 4° C. for 1 hr to prepare the cell extract.
To a 96-well plate for ELISA (purchased from COSTAR, Production No. 3369) was added 50 μl of 60 mM bicarbonate buffer (pH 9.6) containing 50 μg/ml of an anti-phosphotyrosine antibody (PY20, purchased from Transduction Laboratory, Production No. P-11120). The plate was incubated at 4° C. overnight.
Each well of the plate prepared in 2. was washed three times with 200 μl of PBS, and supplied with 150 μl of 3% BSA/PBS, followed by incubating at room temperature for 2 hrs. Each well was washed three times with 200 μl of PBS, and supplied with 50 μl of the above cell extract, followed by incubating at 4° C. overnight. After the incubation, each well was washed three times with 250 μl of a washing solution (0.1% BSA, 20 mM Tris-HCl (pH 7.6), 137 mM NaCl, and 0.05% Tween-20), and supplied with 70 μl of anti-HGFR antibody (h-Met(C-12), purchased from Santa Cruz, Production No. sc-10) 2,000-fold diluted with a reaction solution (1% BSA, 20 mM Tris-HCl (pH 7.6), 137 mM NaCl and 0.05% Tween-20), followed by incubating at room temperature for 1 hr. The well was washed three times with 250 μl of the washing solution, and supplied with 70 μl of peroxidase-labelled anti-rabbit IgG antibody (purchased from Cell Signaling, Production No. 7074) 2,000-fold diluted with the reaction solution, followed by incubating at room temperature for 1 hr. Each well was washed three times with 250 μl of the washing solution, and supplied with 70 μl of TMB Membrane Peroxidase Substrate (purchased from Funakoshi, Production No. 50-5077-03), followed by incubating at room temperature for 10 min. Each well was supplied with 70 μl of 1 M phosphoric acid, and using the Plate Reader MTP-500 (Corona Electric), the absorbance of the well was instantly determined at a measurement wavelength of 450 nm. While defining the absorbance of a well supplied with the cell extract having no test substance as 100% HGFR autophosphorylation activity, and the absorbance of a well supplied with 50 μl of the lysis buffer as 0% HGFR autophosphorylation activity, the HGFR autophosphorylation activity (%) was calculated for each well.

[2] = test system: Human gastric cancer cells (MKN-45); test: Inhibitory activity against the proliferation of human gastric cancer cells (MKN-45); format: cell-based; conditions: 72 h, MKN-45, 1% FBS RPMI1640, 3 days, Cell Counting Kit-8
Method: Human gastric cancer cells (MKN-45) were suspended in a 1% FBS-containing RPMI1640 medium (purchased from Sigma). The cell suspension (1×10^4 cells/ml) was added in a 96-well plate for cell culture (purchased from NUNC, Production No. 167008) at 0.1 ml/well, and then cultured in a 5% CO2 incubator (37° C.) overnight. After the culture, each well was supplied with 0.1 ml of a test substance diluted with a 1% FBS-containing RPMI1640 medium, followed by culturing in a 5% CO2 incubator (37° C.) for 3 days. After the culture, each well was supplied with 10 μl of Cell Counting Kit-8 (purchased from DOJINDO, Production No. 343-07623), followed by incubation in a 5% CO2 incubator (37° C.) for about 1.5 hrs. After the incubation, using the Plate Reader MTP-500 (Corona Electric), the absorbance of each well was determined at a measurement wavelength of 450 nm and a reference wavelength of 660 nm.

T1 sequence (P08581 956-1390 limits assumed): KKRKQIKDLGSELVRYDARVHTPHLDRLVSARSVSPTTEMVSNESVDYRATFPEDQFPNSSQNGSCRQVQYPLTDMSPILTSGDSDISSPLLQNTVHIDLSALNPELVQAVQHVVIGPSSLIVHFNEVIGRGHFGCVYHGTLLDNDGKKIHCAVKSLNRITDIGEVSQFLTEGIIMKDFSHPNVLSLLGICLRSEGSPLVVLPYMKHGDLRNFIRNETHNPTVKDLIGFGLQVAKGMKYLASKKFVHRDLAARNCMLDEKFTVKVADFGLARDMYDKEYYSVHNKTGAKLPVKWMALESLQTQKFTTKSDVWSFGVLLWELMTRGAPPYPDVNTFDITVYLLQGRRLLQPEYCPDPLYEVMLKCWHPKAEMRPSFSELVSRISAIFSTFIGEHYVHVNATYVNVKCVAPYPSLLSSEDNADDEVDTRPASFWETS
T2 sequence (P08581 25-1390): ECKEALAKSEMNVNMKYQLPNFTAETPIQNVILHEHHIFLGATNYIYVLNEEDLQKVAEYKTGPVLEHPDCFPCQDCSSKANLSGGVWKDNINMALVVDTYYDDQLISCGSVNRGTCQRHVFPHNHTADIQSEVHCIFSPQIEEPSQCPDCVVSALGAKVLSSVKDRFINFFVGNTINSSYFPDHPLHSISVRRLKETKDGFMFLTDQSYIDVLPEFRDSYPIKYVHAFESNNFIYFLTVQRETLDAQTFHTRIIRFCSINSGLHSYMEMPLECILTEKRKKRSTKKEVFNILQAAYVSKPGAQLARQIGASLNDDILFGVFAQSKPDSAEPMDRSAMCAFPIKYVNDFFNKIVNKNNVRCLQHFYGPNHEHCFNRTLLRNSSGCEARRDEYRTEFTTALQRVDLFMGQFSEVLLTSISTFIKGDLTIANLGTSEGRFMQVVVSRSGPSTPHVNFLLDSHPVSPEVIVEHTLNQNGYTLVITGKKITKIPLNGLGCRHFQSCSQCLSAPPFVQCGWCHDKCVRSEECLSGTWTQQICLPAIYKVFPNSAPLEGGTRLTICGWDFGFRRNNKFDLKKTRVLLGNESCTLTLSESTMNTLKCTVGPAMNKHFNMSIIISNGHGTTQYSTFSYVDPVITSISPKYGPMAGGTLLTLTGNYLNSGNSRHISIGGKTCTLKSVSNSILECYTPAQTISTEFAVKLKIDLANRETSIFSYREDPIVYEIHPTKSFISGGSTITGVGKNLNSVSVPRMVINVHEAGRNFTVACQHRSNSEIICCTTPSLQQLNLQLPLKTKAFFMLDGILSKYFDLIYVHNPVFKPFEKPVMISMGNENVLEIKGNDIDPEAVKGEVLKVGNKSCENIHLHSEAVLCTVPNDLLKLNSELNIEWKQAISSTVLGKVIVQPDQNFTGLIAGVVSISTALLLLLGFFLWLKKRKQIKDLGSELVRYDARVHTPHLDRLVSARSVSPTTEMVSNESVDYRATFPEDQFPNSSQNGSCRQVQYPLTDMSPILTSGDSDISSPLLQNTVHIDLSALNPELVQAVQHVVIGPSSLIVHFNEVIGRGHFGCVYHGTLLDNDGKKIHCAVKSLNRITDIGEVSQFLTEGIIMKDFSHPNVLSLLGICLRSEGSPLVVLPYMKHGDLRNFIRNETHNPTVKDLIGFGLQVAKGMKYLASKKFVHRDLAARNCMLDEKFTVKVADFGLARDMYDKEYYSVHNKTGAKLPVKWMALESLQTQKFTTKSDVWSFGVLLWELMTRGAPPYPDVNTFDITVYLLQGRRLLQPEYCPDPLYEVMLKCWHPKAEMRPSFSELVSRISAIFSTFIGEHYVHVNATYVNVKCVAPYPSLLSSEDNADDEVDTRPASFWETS

Compound | IC50 [1] | IC50 (HGFR) | IC50 [2]
CN(C)CC1CCN(C(=O)Nc2cc(Oc3ccc(NC(=O)C4(C(=O)Nc5ccc(F)cc5)CCC4)cc3F)ccn2)CC1 [Example 6, N-[4-({2-[({4-[(Dimethylamino)methyl]piperidin-1-yl}carbonyl)amino]pyridin-4-yl}oxy)-3-fluorophenyl]-N′-(4-fluorophenyl)cyclobutane-1,1-dicarboxamide] | 640 nM |  | 
CN1CCC(N(C)C(=O)Nc2cc(Oc3ccc(NC(=O)C4(C(=O)Nc5cccnc5)CC4)c(F)c3)ccn2)CC1 [Example 51, N-(2-Fluoro-4-{[2-({[methyl(1-methylpiperidin-4-yl)amino]carbonyl}amino)pyridin-4-yl]oxy}phenyl)-N′-pyridin-3-ylcyclopropane-1,1-dicarboxamide] | 250 nM | 380 nM | 
CN1CCC(N(C)C(=O)Nc2cc(Oc3ccc(NC(=O)C4(C(=O)NCC(C)(C)C)CC4)c(F)c3)ccn2)CC1 [Example 53, N-(2,2-Dimethylpropyl)-N′-(2-fluoro-4-{[2-({[methyl(1-methylpiperidin-4-yl)amino]carbonyl}amino)pyridin-4-yl]oxy}phenyl)cyclopropane-1,1-dicarboxamide] | 270 nM | 370 nM | 
O=C(Nc1cc(Oc2cc(F)c(NC(=O)C3(C(=O)Nc4ccc(F)cc4)CC3)cc2F)ccn1)N1CC(O)C1 [Example 91, N-[2,5-Difluoro-4-[(2-{[(3-hydroxyazetidin-1-yl)carbonyl]amino}pyridin-4-yl)oxy]phenyl}1-N′-(4-fluorophenyl)cyclopropane-1,1-dicarboxamide] |  |  | 5 nM
CN1CCC(N(C)C(=O)Nc2cc(Oc3cc(F)c(NC(=O)C4(C(=O)Nc5ccc(F)cc5)CC4)cc3F)ccn2)CC1 [Example 94] |  |  | 4.9 nM

The next lines start with the values.

IC50 [1] | IC50 (HGFR) | IC50 [2] | Compound
180 nM | 260 nM |  | CN1CCC(N(C)C(=O)Nc2cc(Oc3ccc(NC(=O)C4(C(=O)NCc5ccccc5)CC4)c(F)c3)ccn2)CC1 [Example 49, N-Benzyl-N′-(2-fluoro-4-{[2-({[methyl(1-methylpiperidin-4-yl)amino]carbonyl}amino)pyridin-4-yl]oxy}phenyl)cyclopropane-1,1-dicarboxamide]
160 nM | 170 nM |  | CN1CCC(N(C)C(=O)Nc2cc(Oc3ccc(NC(=O)C4(C(=O)NC5CCCC5)CC4)c(F)c3)ccn2)CC1 [Example 52, N-Cyclopentyl-N′-(2-fluoro-4-{[2-({[methyl(1-methylpiperidin-4-yl)amino]carbonyl}amino)pyridin-4-yl]oxy}phenyl)cyclopropane-1,1-dicarboxamide]
